PMC11859928, “Design, Synthesis, and Antiproliferative Activity of Novel Indole/1,2,4-Triazole Hybrids as Tubulin Polymerization Inhibitors” (Pharmaceuticals, 2025)

How the values were obtained:
Experiment in all cases: NCI one-dose assay
Assay type in all cases: cell-based
PC-3 = conditions: Homo sapiens, PC-3, Prostate cancer, read-out: Cell growth inhibition %
MALME-3M = conditions: Homo sapiens, Melanoma, read-out: Cell growth inhibition %
HT29 = conditions: Homo sapiens, HT-29, HT29, Colon cancer, read-out: Cell growth inhibition %
MOLT-4 = conditions: Homo sapiens, MOLT-4, Leukemia, read-out: Cell growth inhibition %
MDA-MB-468 = conditions: Homo sapiens, MDA-MB-468, Breast cancer, read-out: Cell growth inhibition %
COLO 205 = conditions: Homo sapiens, COLO 205, Colon cancer, read-out: Cell growth inhibition %
K-562 = conditions: Homo sapiens, K562, K-562, Leukemia, read-out: Cell growth inhibition %
UACC-62 = conditions: Homo sapiens, UACC-62, Melanoma, read-out: Cell growth inhibition %
HCT-15 = conditions: Homo sapiens, HCT-15, Colon cancer, read-out: Cell growth inhibition %
ACHN = conditions: Homo sapiens, Renal cancer, read-out: Cell growth inhibition %
MDA-MB-231/ATCC = conditions: Homo sapiens, Breast cancer, read-out: Cell growth inhibition %
DU-145 = conditions: Homo sapiens, DU-145, Prostate cancer, read-out: Cell growth inhibition %
HCT-116 = conditions: Homo sapiens, HCT-116, Colon cancer, read-out: Cell growth inhibition %
OVCAR-5 = conditions: Homo sapiens, OVCAR-5, Ovarian cancer, read-out: Cell growth inhibition %
SN12C = conditions: Homo sapiens, Renal cancer, read-out: Cell growth inhibition %
OVCAR-8 = conditions: Homo sapiens, OVCAR-8, Ovarian cancer, read-out: Cell growth inhibition %
CCRF-CEM = conditions: Homo sapiens, Leukemia, read-out: Cell growth inhibition %
HCC-2998 = conditions: Homo sapiens, HCC-2998, Colon cancer, read-out: Cell growth inhibition %
OVCAR-4 = conditions: Homo sapiens, OVCAR-4, Ovarian cancer, read-out: Cell growth inhibition %
HL-60(TB) = conditions: Homo sapiens, Leukemia, read-out: Cell growth inhibition %
NCI/ADR-RES = conditions: Homo sapiens, Ovarian cancer, read-out: Cell growth inhibition %
SK-MEL-2 = conditions: Homo sapiens, SK-MEL-2, Melanoma, read-out: Cell growth inhibition %
RPMI-8226 = conditions: Homo sapiens, RPMI-8226, Leukemia, read-out: Cell growth inhibition %
KM12 = conditions: Homo sapiens, KM12, Colon cancer, read-out: Cell growth inhibition %
SK-OV-3 = conditions: Homo sapiens, SK-OV-3, Ovarian cancer, read-out: Cell growth inhibition %
M14 = conditions: Homo sapiens, M14, Melanoma, read-out: Cell growth inhibition %
NCI-H322M = conditions: Homo sapiens, Non-small cell lung cancer, read-out: Cell growth inhibition %
SW-620 = conditions: Homo sapiens, SW-620, Colon cancer, read-out: Cell growth inhibition %
SK-MEL-5 = conditions: Homo sapiens, SK-MEL-5, Melanoma, read-out: Cell growth inhibition %
BT-549 = conditions: Homo sapiens, BT-549, Breast cancer, read-out: Cell growth inhibition %
NCI-H23 = conditions: Homo sapiens, NCI-H23, Non-small cell lung cancer, read-out: Cell growth inhibition %
SNB-75 = conditions: Homo sapiens, SNB-75, CNS cancer, read-out: Cell growth inhibition %
UACC-257 = conditions: Homo sapiens, UACC-257, Melanoma, read-out: Cell growth inhibition %
CAKI-1 = conditions: Homo sapiens, CAKI-1, Renal cancer, read-out: Cell growth inhibition %
TK-10 = conditions: Homo sapiens, TK-10, Renal cancer, read-out: Cell growth inhibition %
NCI-H460 = conditions: Homo sapiens, NCI-H460, Non-small cell lung cancer, read-out: Cell growth inhibition %

Row | SMILES | inhibition at 10 µM (PC-3) | inhibition at 10 µM (MALME-3M) | inhibition at 10 µM (HT29) | inhibition at 10 µM (MOLT-4) | inhibition at 10 µM (MDA-MB-468) | inhibition at 10 µM (COLO 205) | inhibition at 10 µM (K-562) | inhibition at 10 µM (UACC-62) | inhibition at 10 µM (HCT-15) | inhibition at 10 µM (ACHN) | inhibition at 10 µM (MDA-MB-231/ATCC) | inhibition at 10 µM (DU-145) | inhibition at 10 µM (HCT-116) | inhibition at 10 µM (OVCAR-5) | inhibition at 10 µM (SN12C) | inhibition at 10 µM (OVCAR-8) | inhibition at 10 µM (CCRF-CEM) | inhibition at 10 µM (HCC-2998) | inhibition at 10 µM (OVCAR-4) | inhibition at 10 µM (HL-60(TB)) | other results
1 | C=CCn1c(SC/C(=N\O)c2ccc(C)cc2)nnc1-c1c[nH]c2ccccc12 [Compound 7c, (Z)-2-((4-allyl-5-(1H-indol-3-yl)-4H-1,2,4-triazol-3-yl)thio)-1-(p-tolyl)ethanone Oxime] | 7.62% | 9.17% | -4.09% | 20.4% | 27.1% | -6.48% | 13.3% | 30.9% | 11.3% | 11.4% | 4.01% | -2.38% | 22.3% | 1.32% | 11.7% | 8.49% | 2.91% | 1.5% | 6.11% | 10% | inhibition at 10 µM (NCI/ADR-RES): 1.27%; inhibition at 10 µM (SK-MEL-2): 1.01%; inhibition at 10 µM (RPMI-8226): 8.76%; inhibition at 10 µM (KM12): 0.27%; inhibition at 10 µM (SK-OV-3): -0.26%; inhibition at 10 µM (M14): 5.59%; inhibition at 10 µM (NCI-H322M): 5.67%; inhibition at 10 µM (SW-620): 4.06%; inhibition at 10 µM (SK-MEL-5): 11.1%; inhibition at 10 µM (BT-549): -7.22%; inhibition at 10 µM (NCI-H23): 9.29%; inhibition at 10 µM (SNB-75): 2.58%; inhibition at 10 µM (UACC-257): -6.62%; inhibition at 10 µM (CAKI-1): 20.2%; inhibition at 10 µM (TK-10): -26.8%; inhibition at 10 µM (NCI-H460): 9.2%
2 | C=CCn1c(SC/C(=N\O)c2ccc(Br)cc2)nnc1-c1c[nH]c2ccccc12 [Compound 7d, (Z)-2-((4-allyl-5-(1H-indol-3-yl)-4H-1,2,4-triazol-3-yl)thio)-1-(4-bromophenyl) Ethanone Oxime] | 31.6% | 4.84% | 3.35% | 43.7% | 42.2% | 8.25% | 40.8% | 36.3% | 26.9% | 17.9% | 23.6% | 6.21% | 47% | 6.82% | 16.3% | 18.3% | 26.7% | -3.65% | 24.5% | 35.7% | inhibition at 10 µM (NCI/ADR-RES): 6.71%; inhibition at 10 µM (SK-MEL-2): 8.97%; inhibition at 10 µM (RPMI-8226): 37.9%; inhibition at 10 µM (KM12): 8.58%; inhibition at 10 µM (SK-OV-3): 3.28%; inhibition at 10 µM (M14): 19.2%; inhibition at 10 µM (NCI-H322M): 16.3%; inhibition at 10 µM (SW-620): 7.31%; inhibition at 10 µM (SK-MEL-5): 40.9%; inhibition at 10 µM (BT-549): 20.4%; inhibition at 10 µM (NCI-H23): 17.9%; inhibition at 10 µM (SNB-75): 6.02%; inhibition at 10 µM (UACC-257): -1.32%; inhibition at 10 µM (CAKI-1): 25.8%; inhibition at 10 µM (TK-10): 12.9%; inhibition at 10 µM (NCI-H460): 19.7%
3 | C=CCn1c(SC/C(=N\O)c2ccc(Cl)cc2)nnc1-c1c[nH]c2ccccc12 [Compound 7e, (Z)-2-((4-allyl-5-(1H-indol-3-yl)-4H-1,2,4-triazol-3-yl)thio)-1-(4-chlorophenyl) Ethanone Oxime] | 24.4% | 15.6% | 5.77% | 40% | 43.1% | 0.1% | 39.3% | 35.8% | 21.7% | 10.2% | 23.1% | 5.88% | 36.1% | -2.62% | 14.9% | 16.8% | 17.2% | 8.7% | 19.9% | 35% | inhibition at 10 µM (NCI/ADR-RES): 3.86%; inhibition at 10 µM (SK-MEL-2): 3.64%; inhibition at 10 µM (RPMI-8226): 29.7%; inhibition at 10 µM (KM12): 4.48%; inhibition at 10 µM (SK-OV-3): 3.52%; inhibition at 10 µM (M14): 16%; inhibition at 10 µM (NCI-H322M): 11.9%; inhibition at 10 µM (SW-620): 9.5%; inhibition at 10 µM (SK-MEL-5): 27.4%; inhibition at 10 µM (BT-549): 14.4%; inhibition at 10 µM (NCI-H23): 17.4%; inhibition at 10 µM (SNB-75): 4.75%; inhibition at 10 µM (UACC-257): 6.8%; inhibition at 10 µM (CAKI-1): 25.4%; inhibition at 10 µM (TK-10): 1.28%; inhibition at 10 µM (NCI-H460): 24.7%
4 | O/N=C(\CSc1nnc(-c2c[nH]c3ccccc23)n1-c1ccccc1)c1ccccc1 [Compound 7f, (Z)-2-((5-(1H-Indol-3-yl)-4-phenyl-4H-1,2,4-triazol-3-yl)thio)-1-phenylethanone Oxime] | 75.9% | 23.9% | 50.7% | 76.1% | 64.6% | 47.1% | 67.6% | 59.2% | 74.8% | 58.4% | 31.3% | 40.2% | 60% | 14.3% | 42.6% | 43.2% | 59% | 43.3% | 62.2% | 75.3% | inhibition at 10 µM (NCI/ADR-RES): 44.7%; inhibition at 10 µM (SK-MEL-2): 50.8%; inhibition at 10 µM (RPMI-8226): 68.1%; inhibition at 10 µM (KM12): 59.9%; inhibition at 10 µM (SK-OV-3): 30.6%; inhibition at 10 µM (M14): 54.2%; inhibition at 10 µM (NCI-H322M): 35%; inhibition at 10 µM (SW-620): 47.2%; inhibition at 10 µM (SK-MEL-5): 84.1%; inhibition at 10 µM (BT-549): 42.5%; inhibition at 10 µM (NCI-H23): 45.8%; inhibition at 10 µM (SNB-75): 23.8%; inhibition at 10 µM (UACC-257): 20.1%; inhibition at 10 µM (CAKI-1): 48.9%; inhibition at 10 µM (TK-10): 34%; inhibition at 10 µM (NCI-H460): 66%
